# Test results as given in a melting point compilation (Tetko et al.; mined from patent text by program, amines drawn as free bases though some values may be those of a salt).
row,melting point [°C],Structure (SMILES)
1,141 to 143,C=CCCONC(=O)c1nc(-c2ccc(Cl)c(OC)c2F)cc(N)c1Cl
2,162,CC(=O)N1CCN(CCCOc2ccc(N3CCN(c4ccc5nnc(C(F)(F)F)n5n4)CC3)cc2)CC1
3,80 to 81,CCOC(=O)CCc1ccc(OCCCc2cn(-c3ccc(C(F)(F)F)cn3)nc2OCC)cc1OCc1ccccc1
4,135,CCOC(=O)c1ccc(NCc2cc(Br)ccc2OCc2ccccc2)c(N)c1
5,184 to 186,CNc1sccc1C(=O)c1ccccc1F
6,84 to 85,CCCCCCNC(=O)OC1CCN(C(=O)Oc2ccc(Oc3ccc(C)cc3)cc2)CC1
7,136,COc1cncnc1-c1ssc(=S)c1C
8,252 to 254,Cn1c(C(=O)N(Cc2cc(C(F)(F)F)cc(C(F)(F)F)c2)Cc2cc(C(F)(F)F)cc(C(F)(F)F)c2)c(-c2ccc(F)cc2)c2cccnc2c1=O
9,116 to 118,CC(C)(C)NNC(=O)c1cccc(Cl)c1
10,184 to 186,O=C(Cc1cccc(Br)c1)Nc1cccc(C(=O)NO)c1
11,145 to 147,COc1ccc(N2CCN(c3c(C)c(C)c4c(c3C)C(O)(c3ccc(C)cc3)C(C)(C)O4)CC2)cc1 (stereo unspecified)
12,138 to 141,CC1N(c2cc(CC(Cl)C(=O)O)c(Cl)cc2Cl)NC(=O)N1C(F)F (stereo unspecified)
13,191,CCN(c1cccc2cc(-c3ncc(COc4ccc(C(=O)OC)cc4)s3)[nH]c12)S(=O)(=O)c1cccs1
14,170 to 172,CCOCc1nc2c(N)nc3ccccc3c2n1CCCCS(=O)(=O)NC
15,131 to 133,CC(=O)NCc1ccc2c(c1)N(C1CCN(CCc3ccc(F)cc3)CC1)CC2(C)C
16,220,CCCC(=O)Nc1n[nH]c2cc(-c3ccccc3)ccc12
17,111 to 112,FC(F)(F)c1ccn(-c2ccnc(Cl)n2)n1
18,167 to 168,COC(=O)c1ccccc1NS(=O)(=O)c1ccc(C(=O)NCCc2ccccc2)cc1
19,165 to 166,COc1cccc(OC2COc3ccc(OCc4cc(OC)ccn4)cc3C2O)c1 (stereo unspecified)
20,144 to 146,CCCC[C@H](NC(=O)[C@@H](NC(=O)OCc1ccccc1)c1ccccc1)C(=O)CSCc1ccco1
21,170 to 171,COc1cc2c(cc1O)CCCC(=O)N2Cc1cc(OC)c(OC)c(OC)c1
22,146,CCNC(=O)c1ccc(-n2nnc(C(=O)NC3CC3)c2COCc2ccccc2)c(O)c1
23,130,O=C(Nc1ccc(F)cc1)Oc1ccc2c(c1)N(Cc1ccccc1)CCC2
24,246 to 247,Cc1ccc(-c2ccc(C(=O)Nc3ccc4nc(CN5C(C)(C)CCCC5(C)C)ccc4c3)cn2)cc1

row,melting point [°C],Structure (SMILES)
1,117 to 118,CCOC(=O)C(=CNc1cnsn1)C(=O)c1cc(F)c(F)cc1F
2,160 to 162,CC(=O)C(O)C1OC(n2cc(C#N)c(=O)[nH]c2=O)CC1C(C)=O (stereo unspecified)
3,273,Cc1nc2ncnn2c(O)c1F
4,193 to 197,O=C(NC1CCN(CCC(O)c2ccc3c(c2)OCCO3)CC1)c1ccccc1 (stereo unspecified)
5,101,COc1ccc(-c2nccc(C)c2OC2SCC(O)C(O)C2O)cc1 (stereo unspecified)
6,170 to 171,CC(=O)c1ccc2c(c1)CC(=O)N2CC(F)(F)F
7,130 to 146,COC(=O)C1(C)CN(C(=O)Nc2ccc(Cl)cn2)N=C1c1ccc(Cl)cc1 (stereo unspecified)
8,118 to 119,CCOC(=O)CCCCn1c(=O)n(CCN2CCN(c3ccccc3OC)CC2)c(=O)c2sccc21
9,119 to 123,CCC(C)NC(=O)c1ncc(C)cc1C(N)=O (stereo unspecified)
10,128 to 129,Cn1c(CNCC2CCOC2)cc2cc(NC(=O)c3ccc(OC[C@@H]4CCCO4)cc3)ccc21 (stereo partly specified)
11,225 to 228,NC(=O)CN1C(=O)[C@@H](N)[C@H](c2ccccc2)Sc2cc(Cl)ccc21 (relative stereo)
12,235 to 249,O=C(O)c1ccc(-c2c([N+](=O)[O-])oc3ccc(-c4ccccc4)cc23)cc1
13,147 to 149,O=C(Nc1cc([N+](=O)[O-])cc([N+](=O)[O-])c1)C1CC1
14,63 to 66,CN1C(=O)C(c2ccc(OC(F)F)cc2)(c2cccc(CCCCO)c2)N=C1N (stereo unspecified)
15,166 to 168,COc1cc2c(c3c1OC(C)(C)C3)C(c1ccn(CC(=O)NCC(N)=O)c(=O)c1)=NC(C)(C)C2
16,198 to 199,O=C1Nc2ccccc2N2CCN(c3ccccc3)CCN12
17,143,CCCCC(=NNC=O)c1ccncc1
18,337 to 339,Cc1cccc2oc(Nc3ccc(CC(=O)O)cc3)nc12
19,132,CCOc1ccc(C(=O)NC/C=C/c2ccccc2)cc1
20,177 to 179,Nc1nccnc1C(=O)Nc1ccccc1Cl
21,125 to 126,CCc1cccc(CC(=O)O)c1OCCn1cc(C(=O)NCc2ccc(Cl)cc2Cl)c(OC(C)C)n1
22,110,O=S(=O)(CCl)c1ccc(O)cc1
23,92 to 95,CC(=O)NCCC1CCc2ccc3nc(C4CC4)oc3c21 (stereo unspecified)
24,261 to 264,O=C(O)c1cn(C2CCCCC2)c2c(F)c(F)c(F)cc2c1=O

row,melting point [°C],Structure (SMILES)
1,150 to 152,NC(=O)c1c(F)ccc(OCc2cc3cc(C(F)(F)F)ccc3s2)c1F
2,83,Cc1ccc2oc(-c3ccccc3[N+](=O)[O-])cc2c1
3,180 to 181,Cc1ccc(NC(=O)C(CS)Cc2ccccc2)c(C)c1C(=O)O (stereo unspecified)
4,84.5 to 86,CN(C)C(=O)C1CC(=O)N(c2cc(C(F)(F)F)cc(C(F)(F)F)c2)C1 (stereo unspecified)
5,58 to 61,CC(C)Oc1cccc(C(=O)N2CCN(C(=O)CNC3CCN(Cc4ccccc4)CC3)C(c3ccc(Cl)c(Cl)c3)C2)c1 (racemic)
6,121 to 122,CCn1c(=O)oc2cc([N+](=O)[O-])cc(F)c21
7,156 to 158,O=C1Nc2cccnc2N(C(=O)NCCN2CCCCC2CN2CCCCCC2)c2ccccc21 (stereo unspecified)
8,113 to 114,COc1ccc(-n2c(Cn3ccnc3)nc3ccccc32)cc1
9,226,CCN1CCc2ccc(Nc3ncc(C(F)(F)F)c(Nc4ccccc4C(=O)NC)n3)cc2CC1
10,106 to 108,O=[N+]([O-])C=C(NCc1cccnc1)N1CCCCC1
11,92 to 102,CC(=O)OC1CSC(Oc2ccc(C)nc2-c2cccnc2)C(OC(C)=O)C1OC(C)=O (stereo unspecified)
12,200,Cc1ccnc(-c2nc(=O)c3ccccc3s2)c1
13,201 to 202,Brc1ccc(Nc2nnc(Cc3ccncc3)c3ccccc23)cc1
14,187 to 188,COc1cc(CC(=O)Nc2cnn(Cc3c(C)noc3C)c2)cc(OC)c1O
15,117 to 118,O=C(O)CCC=C(Cl)Cl
16,130 to 140,CC1C(=O)Nc2c(C(=O)c3ccc(Cl)cc3)cccc21 (stereo unspecified)
17,122 to 124,COc1cccc(Sc2ccnc(Nc3cccc(CCO)c3)n2)c1
18,129 to 135,Cc1cccc(Nc2ncnc3ccc(OCCBr)cc23)c1
19,82 to 83,COC(=S)c1sc(C)c(Cl)c1OC
20,103 to 104,CCCCCc1nc(C)c(C(=O)OCC)n1Cc1ccc2oc(-c3ccccc3-c3nnn[nH]3)c(Br)c2c1
21,132,Cc1cnc(CCCC#N)c(O)c1
22,272 to 273,CC(C)COc1ccccc1C1=NC(=O)C2=NC=NC2=N1
23,223 to 224,CCc1cc2c(=O)n3cc(C#N)ccc3nc2s1
24,294 to 296,O=C1c2c(Cl)cccc2-n2c1nc1ccccc1c2=O

row,melting point [°C],Structure (SMILES)
1,158 to 160,CCc1nnc(CCCOc2c(C)cc(N)c(C=NO)c2C)s1
2,157 to 158,CCOC(=O)C(C)(C)Oc1ccc(C(=O)Nc2ccccc2Sc2ccccc2-c2nnn[nH]2)cc1
3,251 to 252,O=C(N[C@H](Cc1ccc(C(F)(F)F)cc1)[C@@H](O)c1ccc(F)cc1)c1c2ccccc2cc2ccccc12 (racemic)
4,245,CC1(C)CC(=O)c2c(Sc3ncccn3)sc(-c3cc[nH]n3)c2C1
5,180,Cc1cccc(C)c1Nc1nc(N)ns1
6,268 to 269,CN(C)c1ccc2cc(-c3ccn4ccnc4c3C#N)ccc2c1
7,229 to 233,C=Cc1ccc2nc(Cl)c(S(N)(=O)=O)n2n1
8,168 to 174,COc1cc(C(=O)NN2CCN(C)CC2)ccc1Nc1ncc2c(n1)N(C1CCCC1)CC(F)(F)C(=O)N2C
9,101 to 103,CC1(C)CC(=O)c2c(C3CCCCC3)sc(-c3nccs3)c2C1
10,113 to 114,COC(=O)C1C=CCN2C(=O)C(CCOC3CCCCO3)(Cc3ccccc3)C(=O)N12 (stereo unspecified)
11,188,CN1C(=O)N(c2cc(Cl)cc(Cl)c2)C(=O)[C@]12CN(Cc1cc(C(=O)O)cs1)C[C@H]2c1ccc(C#N)cc1 (relative stereo)
12,207 to 209,CCCCCCCCCCCC=CC(O)C(COC1OC(CO)C(O)C(O)C1O)NC(=O)CCCCCCCCCCCCCCC (stereo unspecified)
13,162 to 164,CONC(=O)C(C)c1ccc2cc(OCc3ccc4ccccc4n3)ccc2c1 (stereo unspecified)
14,237 to 238,CSc1cc(Cl)nn2c(-c3ccnc(N)c3)c(-c3ccc(F)c(C)c3)nc12
15,160 to 162,O=C(O)c1ccc(OCCCCCCc2ccc3cc(O)c(O)cc3c2)cc1
16,201 to 206,N[C@@H]1CCN(c2ccc3c(NC(=O)CC4CCCCC4)c(Cl)ccc3n2)C1
17,67 to 68,CCOC(=O)C(C)c1ccc(C(=O)c2ccc(Cl)cc2)n1C (stereo unspecified)
18,240,CCC(C(=O)O)c1cccc(C(=O)c2cc3cc(C(=O)O)sc3s2)c1 (stereo unspecified)
19,262 to 263,COc1c(F)ccc2c1C(C)(C)CC(O)(C(F)(F)F)C2Nc1cccc2c(=O)n(C)ncc12 (stereo unspecified)
20,252 to 254,O=C(Oc1ccc(-c2ccc(OC(=O)c3cc(O)c(Br)c(O)c3)cc2)cc1)c1ccc(O)c(O)c1
21,218 to 220,Cc1cccc(Cl)c1NC(=O)Nc1cc(N[C@H]2CC[C@H](O[Si](C)(C)C(C)(C)C)CC2)ncn1

row,Structure (SMILES),melting point [°C]
1,Cc1nnc2n1-c1sc(Cl)cc1C(c1ccccc1[N+](=O)[O-])=NC2,210 to 212
2,COc1cc(OC)c(C2C=CCN(C)C2)c(OC)c1 (stereo unspecified),118 to 122
3,CCCN(CCC)Cc1nc(-c2ncn3c2CN(C)C(=O)c2ccccc2-3)no1,130 to 132
